The values below come from patent publication US5436260A, “Angiotensin II receptor antagonists” (Warner-Lambert Company, priority 1994, dated 1995).

pIC50: −log10 of the molar value. Where a name gives a salt, the structure may show the parent alone.

One experiment deals with renal hypertensive rats. Put plainly: blood pressure lowering in renal hypertensive rats (2-kidney, 1-clip Goldblatt model). In kind it is in vivo. The settings on record: single oral dose of 30 mg/kg, renal hypertensive rat. On the procedure:
Finally, the compounds of Formula I were tested in vivo for blood pressure lowering effects in renal hypertensive rats (2-kidney, 1-clip Goldblatt model) according to the method described by S. Sen, et al, in Hypertension 1979;1:427-34 and in Clin. Soc. 1979;57:53-62.
Illustrative of the in vivo antihypertensive activity for compounds of Formula I or Ia is the data for Example 1a. This compound lowers blood pressure by ≥50 mm Hg and is efficacious for more than 24 hours with a single oral dose of 100 mg/kg in the renal hypertensive rat. Furthermore Example 73 lowers blood pressure by ≥30 mm Hg and is efficacious for more than 24 hours with a single oral dose of 30 mg/kg in the renal hypertensive rat.
Turning to `CCCCc1ncc(/C=C2/C(=O)N(CCCC)C(=O)N2CCCC)n1Cc1ccc(C(=O)O)cc1` [Example 73, Z-4-[[2-butyl-5-[(1,3-dibutyl-2,5-dioxo-4-imidazolidinylidene)methyl]-1H-imidazol-1-yl]methyl]benzoic acid], the “efficacious for (duration)” value is given as “more than 24 hours” and the “lowers blood pressure by” value is at least 30 mm Hg.

The experiment is the same for the next values; noted with them: single oral dose of 100 mg/kg, renal hypertensive rat.
In the case of `CCCCc1ncc(/C=C2\C(=O)NC(=O)N2CCCC)n1Cc1ccc(C(=O)O)cc1` [Example 1a, (E)-4-[[2-Butyl-5-[(3-butyl-2,5-dioxo-4-imidazolidinylidene)methyl]-1H-imidazol-1-yl]methyl]benzoic acid], the “lowers blood pressure by” value is listed as at least 50 mm Hg.

The target in the next experiment is T1, AT1 receptor (Rattus norvegicus, UniProt P25095).
T1 construct: rat liver membranes; from tissue; host or cells: rat liver membranes
T1 sequence (P25095 1-359): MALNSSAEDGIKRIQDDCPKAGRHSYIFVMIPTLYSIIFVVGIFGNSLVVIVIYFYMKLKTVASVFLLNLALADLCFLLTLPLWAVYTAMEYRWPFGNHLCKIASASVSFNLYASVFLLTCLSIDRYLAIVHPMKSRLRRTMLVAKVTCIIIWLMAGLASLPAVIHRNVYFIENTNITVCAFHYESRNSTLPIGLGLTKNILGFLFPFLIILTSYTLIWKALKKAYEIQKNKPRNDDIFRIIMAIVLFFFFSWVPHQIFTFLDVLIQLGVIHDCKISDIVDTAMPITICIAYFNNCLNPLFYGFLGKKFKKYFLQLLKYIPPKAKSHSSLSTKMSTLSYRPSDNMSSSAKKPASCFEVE
The experiment in a line: [^3 H]angiotensin II binding to rat liver membranes (AT1 test). The settings on record: inhibition of [^3 H]angiotensin II binding. In a few lines:
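Inhibition of [^3 H]angiotensin II binding to rat liver membranes, run by the Dudley et al. 1990 method.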
`CCCCc1ncc(/C=C2/C(=O)N(CCCC)C(=O)N2CCCC)n1Cc1ccc(C(=O)O)cc1` [Example 73, Z-4-[[2-butyl-5-[(1,3-dibutyl-2,5-dioxo-4-imidazolidinylidene)methyl]-1H-imidazol-1-yl]methyl]benzoic acid]: the pIC50 (usually the negative decadic logarithm of the IC50, by convention in mol/L) was 8.89.
On to `CCCCc1ncc(/C=C2/C(=O)N(COC)C(=O)N2Cc2ccccc2)n1Cc1ccc(C(=O)OC)cc1` [Example 55, Methyl Z-4-[[2-butyl-5-[[1-(methoxymethyl)-2,5-dioxo-3-(phenylmethyl)-4-imidazolidinylidene]methyl]-1H-imidazol-1-yl]methyl]benzoate monohydrochloride], for which the pIC50 was 7.89.
The molecule `CCCCc1ncc(/C=C2\C(=O)NC(=O)N2Cc2ccc(OC)c(OC)c2)n1Cc1ccc(C(=O)O)cc1` [Example 21a] had a pIC50 of 6.95.
`CCCCc1ncc(/C=C2/C(=O)N(CCCC)C(=O)N2Cc2cccs2)n1Cc1ccc(C(=O)OC)cc1` [Example 23, Methyl Z-4-[[2-butyl-5-[[1-butyl-2,5-dioxo-3-(2-thienylmethyl)-4-imidazolidinylidene]methyl]-1H-imidazol-1-yl]methyl]benzoate monohydrochloride] showed a negative logarithm of the IC50 (pIC50) of 8.47.
As to `CCCCc1ncc(/C=C2/C(=O)N(CCCC)C(=O)N2CCc2ccsc2)n1Cc1ccc(C(=O)OC)cc1` [Example 80, Methyl Z-4-[[2-butyl-5-[[1-butyl-2,5-dioxo-3-[2-(3-thienyl)ethyl]-4-imidazolidinylidene]methyl]-1H-imidazol-1-yl]methyl]benzoate monohydrochloride], the pIC50 is 7.84.
In turn, `CCCCc1ncc(/C=C2\C(=O)NC(=O)N2CCCC)n1Cc1ccc(-c2nn[nH]n2)cc1` [Example 76b, E-1-Butyl-5-[[2-butyl-3-[[4-(1H-tetrazol-5-yl)phenyl]methyl]-3H-imidazol-4-yl]methylene]-2,4-imidazolidinedione] showed a pIC50 of 8.61. This pIC50 is 0.77 log units higher than that of the molecule before.
In the case of `CCCCc1ncc(/C=C2/C(=O)N(CCCC)C(=O)N2CC(=O)c2cccs2)n1Cc1ccc(C(=O)OC)cc1` [Example 103, Methyl Z-4-[[2-butyl-5-[[1-butyl-2,5-dioxo-3-[2-oxo-2-(2-thienyl)ethyl]-4-imidazolidinylidene]methyl]-1H-imidazol-1-yl]methyl]benzoate monochloride], the negative-log IC50 (pIC50) is 6.92. Against the preceding molecule, the pIC50 is 1.69 log units lower.
Same read-out and setting: in the case of `CCCCc1ncc(/C=C2\C(=O)N(CCCC)C(=O)N2Cc2cccs2)n1Cc1ccc(C(=O)OC)cc1` [Example 24, Methyl E-4-[[2-butyl-5-[[1-butyl-2,5-dioxo-3-(2-thienylmethyl)-4-imidazolidinylidene]methyl]-1H-imidazol-1-yl]methyl]benzoate monohydrochloride] it was 7.99.
For `CCCCc1ncc(/C=C2/C(=O)NC(=O)N2Cc2cccs2)n1Cc1ccc(C(=O)OC)cc1` [Example 16b, (Z)-4-[[2-Butyl-5-[[2,5-dioxo-3-((2-thienyl)methyl)-4-imidazolidinylidene]methyl]-1H-imidazole-1-yl]methyl]benzoic acid, methyl ester], the pIC50 is 8.16.
For the molecule `CCCCc1ncc(/C=C2/C(=O)N(CCCC)C(=O)N2Cc2csc(C)n2)n1Cc1ccc(C2(C(=O)O)CCCC2)cc1` [Example 85], the pIC50 is 8.73.
The molecule `CCCCc1ncc(/C=C2/C(=O)N(CCCC)C(=O)N2Cc2ccc(-c3ccccc3)cc2)n1Cc1ccc(C(=O)OC)cc1` [Example 102, Methyl Z-4-[[5-[[3-[(1,1'-biphenyl)-4-ylmethyl]-1-butyl-2,5-dioxo-4-imidazolidinylidene]methyl]-2-butyl-1H-imidazol-1-yl]methyl]benzoate] gave a negative-log IC50 (pIC50) below 6.00.
`CCCCc1ncc(/C=C2\C(=O)NC(=O)N2CCCC)n1Cc1ccc(-c2ccccc2C(=O)OC)cc1` [Example 96b, Methyl E 4'-[[2-butyl-5-[(3-butyl-2,5-dioxo-4-imidazolidinylidene)methyl]-1H-imidazol-1-yl]methyl][1,1'-biphenyl]-2-carboxylate]: the negative logarithm of the IC50 (pIC50) was 8.01.
`CCCCc1ncc(CC2C(=O)NC(=O)N2CCCC)n1Cc1ccc(-c2ccccc2-c2nnn[nH]2)cc1` (stereo not drawn) [Example 95, 1-Butyl-5-[[2-butyl-3-[[2'-(1H-tetrazol-5-yl)[1,1'-biphenyl]-4yl]methyl]-3H-imidazol-4-yl]methyl]-2,4-imidazolidinedione] gave a pIC50 of 8.57.
The molecule `CCCCc1ncc(/C=C2/C(=O)N(CCCC)C(=O)N2Cc2nccn2Cc2ccccc2)n1Cc1ccc(C(=O)OC)cc1` [Example 99] had a pIC50 of 6.87. This pIC50 lies 1.70 log units lower than the previous one.
`CCCCc1ncc(/C=C2/C(=O)NC(=O)N2Cc2cccs2)n1Cc1ccc(C(=O)O)cc1` [Example 6b] had a negative-log IC50 (pIC50) of 8.84.
On the same count and under the same terms, with `CCCCc1ncc(/C=C2/C(=O)N(CCCC)C(=O)N2Cc2cccs2)n1Cc1ccc(C(=O)O)cc1` [Example 25] the figure was 8.19; with `CCCCc1ncc(/C=C2\C(=O)NC(=O)N2CCCC)n1Cc1ccc(C(=O)OC)cc1Cl` [Example 87b], 8.14.
The molecule `CCCCc1ncc(/C=C2/C(=O)NC(=O)N2CCCC)n1Cc1ccc(-c2nn[nH]n2)cc1` [Example 76a, Z-1-Butyl-5-[[2-butyl-3-[[4-(1H-tetrazol-5-yl)phenyl]methyl]-3H-imidazol-4-yl]methylene]-2,4-imidazolidinedione] had a pIC50 of 8.47.
`CCCCc1ncc(/C=C2/C(=O)N(CCCC)C(=O)N2Cc2ccccn2)n1Cc1ccc(C(=O)OC)cc1` [Example 58, Methyl Z-4-[[2-butyl-5-[[1-butyl-2,5-dioxo-3-(2-pyridinylmethyl)-4-imidazolidinylidene]methyl]-1H-imidazol-1-yl]methyl]benzoate dihydrochloride] showed a pIC50 of 8.24. This pIC50 lies 0.23 log units lower than the previous one.
Consider `CCCCc1ncc(/C=C2/C(=O)NC(=O)N2Cc2ccc(OC)c(OC)c2)n1Cc1ccc(C(=O)O)cc1` [Example 21b], for which the pIC50 is 7.05. This pIC50 is 1.19 log units lower than that of the molecule before.
The molecule `CCCCc1ncc(/C=C2/C(=O)N(CCCC)C(=O)N2Cc2csc(C)n2)n1Cc1ccc(C(=O)OC)cc1` [Example 68, Methyl Z-4-[[2-butyl-5-[[1-butyl-3-[(2-methyl-4-thiazolyl)methyl]-2,5-dioxo-4-imidazolidinylidene]methyl]-1H-imidazol-1-yl]methyl]benzoate dihydrochloride] gave a pIC50 of 8.38.
The same measure, in the same setting: with `CCCCc1ncc(/C=C2/C(=O)NC(=O)N2CCCC)n1Cc1ccc(C(=O)OC)cc1` [Example 15b, (Z)-4-[[2-Butyl-5-[(3-butyl-2,5-dioxo-4-imidazolidinylidene)methyl]-1H-imidazole-1-yl]methyl]benzoic acid, methyl ester] the figure was 7.99.
Molecule `CCCCc1ncc(/C=C2/C(=O)N(CCCC)C(=O)N2Cc2csc(C)n2)n1Cc1ccc(C2(C(=O)OC)CCCC2)cc1` [Example 84, Methyl Z-1-[4-[[2-butyl-5-[[1-butyl-[3(2-methyl-4-thiazoly)methyl]-2,5-dioxo-4-imidazolidinylidene]methyl]-1H-imidazol-1-yl]methyl]phenyl]cyclopentane-carboxylate monohydrochloride] gave a pIC50 of 6.91.
`CCCCc1ncc(/C=C2\C(=O)NC(=O)N2Cc2cccs2)n1Cc1ccc(C(=O)OC)cc1` [Example 16a, (e)-4-[]2-Butyl-5-[[2,5-dioxo-3-((2-thienyl)methyl)-4-imidazolidinylidene[methyl]-1H-imidazole-1-yl]methyl]benzoic acid, methyl ester] showed a pIC50 of 8.26. This pIC50 lies 1.35 log units higher than the previous one.
